Test results published in ChEMBL document CHEMBL3259558, “Identification of amides derived from 1H-pyrazolo[3,4-b]pyridine-5-carboxylic acid as potent inhibitors of human nicotinamide phosphoribosyltransferase (NAMPT)” (Bioorg Med Chem Lett, 2013).
Converted amounts (≈) assume the structure as drawn. The source made the active and inactive calls. No cut-off for these calls is given here.

Key:
[1] = biological target: T1, Nicotinamide phosphoribosyltransferase (Mus musculus, UniProt Q99KQ4); assay: Inhibition of NAMPT in mouse cells assessed as reduction in NAD level after 48 hrs by mass spectrometry; assay type: cell-based
[2] = biological target: Nicotinamide phosphoribosyltransferase (Rattus norvegicus, UniProt Q80Z29); assay: Inhibition of rat NAMPT after 30 mins by mass spectrometry-based analysis
[3] = Antiproliferative activity against mouse KPP cells assessed as cell viability after 96 hrs by CyQuant staining-based assay; assay type: functional
[4] = Cytotoxicity against African green monkey COS7 cells assessed as cell viability after 96 hrs by CyQuant staining-based assay; details: Chlorocebus aethiops, COS-7, 96 h
[5] = Antiproliferative activity against human MIAPaCa2 cells assessed as cell viability after 96 hrs by CyQuant staining-based assay; assay type: functional; details: MIA PaCa-2, 96 h
[6] = Antiproliferative activity against human HT1080 cells assessed as cell viability after 96 hrs by CyQuant staining-based assay; assay type: functional; details: HT-1080, 96 h
[7] = Drug uptake in Sprague-Dawley rat retina at 30 mg/kg, po qd for 2 days measured 1 hr after last dose in presence of nicotinic acid; assay type: ADME, organism-based; set-up: dose 30 mg/kg, route oral; details: read-out: Drug uptake
[8] = Cellular uptake in mouse KPP cells at 1000 nM; assay type: ADME, cell-based; details: 1 µM
[9] = Antiproliferative activity against dog DH82 cells assessed as cell viability after 96 hrs by CyQuant staining-based assay; assay type: functional; details: Canis lupus familiaris, DH82, 96 h
[10] = Antiproliferative activity against mouse B16F10 cells assessed as cell viability after 96 hrs by CyQuant staining-based assay; assay type: functional; details: B16-F10, 96 h
[11] = Inhibition of C-terminal His-6-tagged dog NAMPT expressed in Escherichia coli (DE3)-RIL cells after 30 mins by mass spectrometry-based analysis; set-up: species or system Canis lupus familiaris
PC-3 [12] = assay: Cellular uptake in human PC3 cells at 1000 nM; assay type: ADME, cell-based; details: pc-3, 1 µM
PC-3 [13] = assay: Cellular uptake in human PC3 cells at 200 nM; assay type: ADME, cell-based; details: pc-3, 0.2 µM
[14] = Antiproliferative activity against mouse KPR cells assessed as cell viability after 96 hrs by CyQuant staining-based assay; assay type: functional
[15] = Ratio of drug level in retina to plasma of Sprague-Dawley rat at 30 mg/kg, po qd for 2 days measured 1 hr after last dose in presence of nicotinic acid
[16] = biological target: T1, Nicotinamide phosphoribosyltransferase; assay: Inhibition of mouse NAMPT after 30 mins by mass spectrometry-based analysis
[17] = Drug uptake in Sprague-Dawley rat retina at 30 mg/kg, po qd for 2 days measured 6.5 hrs after last dose in presence of nicotinic acid; assay type: ADME, organism-based; set-up: dose 30 mg/kg, route oral; details: read-out: Drug uptake
[18] = Cytotoxicity against rhesus monkey RF/6A cells assessed as cell viability after 96 hrs by CyQuant staining-based assay; details: Macaca mulatta
[19] = Antiproliferative activity against dog A72 cells assessed as cell viability after 96 hrs by CyQuant staining-based assay; assay type: functional; details: Canis lupus familiaris, A-72, 96 h
PC-3 [20] = assay: Antiproliferative activity against human PC3 cells assessed as cell viability after 96 hrs by CyQuant staining-based assay; assay type: functional; details: PC-3, 96 h
[21] = Cellular uptake in mouse KPP cells at 200 nM; assay type: ADME, cell-based; details: 0.2 µM
[22] = Ratio of drug level in retina to plasma of Sprague-Dawley rat at 30 mg/kg, po qd for 2 days measured 6.5 hrs after last dose in presence of nicotinic acid
[23] = Dissociation constant, pKa of the compound; assay type: physicochemical
[24] = Inhibition of C-terminal His-6-tagged cynomolgus monkey NAMPT expressed in Escherichia coli (DE3)-RIL cells after 30 mins by mass spectrometry-based analysis; set-up: species or system Macaca fascicularis
[25] = Antiproliferative activity against dog D17 cells assessed as cell viability after 96 hrs by CyQuant staining-based assay; assay type: functional; details: Canis lupus familiaris, D17, 96 h
[26] = Octanol-PBS buffer distribution coefficient, log D of the compound at pH 7.4 by shake flask method; assay type: physicochemical
[27] = Fraction unbound in mouse plasma at 5 uM by LC-MS/MS analysis; assay type: ADME, cell-free
[28] = Aqueous solubility of the compound in PBS at pH 7.2 by LC/CLND analysis; assay type: physicochemical
[29] = Apparent permeability from apical to basolateral side in MDCK cells at 10 uM by LC-MS/MS analysis; assay type: ADME, cell-based, Canis lupus familiaris; details: dog
A2780 [30] = assay: Antiproliferative activity against human A2780 cells assessed as cell viability after 72 hrs by SRB assay in presence of nitotinamide mononucleotide; assay type: functional, cell-based
[31] = biological target: Nicotinamide phosphoribosyltransferase (Homo sapiens, UniProt P43490); assay: Inhibition of C-terminal His-6-tagged full length human NAMPT expressed in Escherichia coli (DE3) cells after 30 mins by mass spectrometry-based analysis
A2780 [32] = assay: Antiproliferative activity against human A2780 cells assessed as cell viability after 72 hrs by SRB assay; assay type: functional, cell-based; details: A2780, 72 h
[33] = Antiproliferative activity against human Calu6 cells assessed as cell viability after 96 hrs by CyQuant staining-based assay; assay type: functional; details: Calu-6, 96 h
[34] = Clearance in NCR nude mouse at 5 mg/kg, iv; assay type: ADME, organism-based; set-up: dose 5 mg/kg, route intravenous; details: in vivo
Tumour = assay: Reduction of NAD level in tumor of NCR nude mouse xenografted with human A2780 cells at 100 mg/kg, po qd measured after day-5 dose for 1 to 24 hrs relative to vehicle-treated control; assay type: functional, organism-based; set-up: dose 100 mg/kg
[35] = Drug uptake in Sprague-Dawley rat retina at 30 mg/kg, po single dose measured 6.5 hrs after dose
[36] = Ratio of drug level in retina to plasma of Sprague-Dawley rat at 30 mg/kg, po qd for 2 days measured 1 hr after last dose
[37] = Half life in NCR nude mouse at 5 mg/kg, iv; assay type: ADME, organism-based; set-up: dose 5 mg/kg, route intravenous; details: in vivo
A2780 [38] = assay: Antitumor activity against human A2780 cells xenografted in NCR nude mouse assessed as tumor regression at 100 mg/kg, po qd measured for 5 to 15 days; assay type: functional, organism-based; set-up: dose 100 mg/kg
[39] = Tmax in NCR nude mouse at 100 mg/kg, po; assay type: ADME, organism-based; set-up: dose 100 mg/kg, route oral; details: in vivo
[40] = Half life in NCR nude mouse at 100 mg/kg, po; assay type: ADME, organism-based; set-up: dose 100 mg/kg, route oral; details: in vivo
[41] = Cmax in NCR nude mouse at 100 mg/kg, po; assay type: ADME, organism-based; set-up: dose 100 mg/kg, route oral; details: in vivo
[42] = Drug uptake in Sprague-Dawley rat retina at 30 mg/kg, po single dose measured 1 hr after dose
[43] = Volume of distribution at steady state in NCR nude mouse at 5 mg/kg, iv; assay type: ADME, organism-based; set-up: dose 5 mg/kg, route intravenous; details: in vivo, read-out: Vdss
[44] = Cytotoxicity against African green monkey COS1 cells assessed as cell viability after 96 hrs by CyQuant staining-based assay; details: Chlorocebus aethiops, COS-1, 96 h
Mus musculus = assay: Toxicity in NCR nude mouse xenografted with human A2780 cells assessed as decrease in body weight at 100 mg/kg, po qd measured after 5 days; assay type: organism-based; set-up: dose 100 mg/kg, route oral; details: in vivo, 120 h
[45] = Ratio of drug level in retina to plasma of Sprague-Dawley rat at 30 mg/kg, po qd for 2 days measured 6.5 hrs after last dose
HCT-116 = assay: Antiproliferative activity against human HCT116 cells assessed as cell viability after 96 hrs by CyQuant staining-based assay; assay type: functional; details: HCT-116, 96 h

Sequence of Nicotinamide phosphoribosyltransferase (Homo sapiens, UniProt P43490) (P43490 whole entry): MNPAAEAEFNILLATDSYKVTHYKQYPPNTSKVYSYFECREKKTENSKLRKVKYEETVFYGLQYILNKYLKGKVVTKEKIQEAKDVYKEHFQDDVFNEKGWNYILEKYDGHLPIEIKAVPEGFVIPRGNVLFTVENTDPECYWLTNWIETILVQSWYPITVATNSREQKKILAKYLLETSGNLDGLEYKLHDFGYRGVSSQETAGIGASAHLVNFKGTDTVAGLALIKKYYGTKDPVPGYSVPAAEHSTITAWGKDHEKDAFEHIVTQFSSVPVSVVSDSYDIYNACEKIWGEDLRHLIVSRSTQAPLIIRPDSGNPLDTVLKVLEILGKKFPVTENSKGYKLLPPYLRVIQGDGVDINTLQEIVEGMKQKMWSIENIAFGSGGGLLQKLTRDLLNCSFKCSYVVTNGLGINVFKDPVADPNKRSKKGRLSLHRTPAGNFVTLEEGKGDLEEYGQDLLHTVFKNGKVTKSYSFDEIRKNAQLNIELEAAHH
T1 sequence (Q99KQ4 whole entry): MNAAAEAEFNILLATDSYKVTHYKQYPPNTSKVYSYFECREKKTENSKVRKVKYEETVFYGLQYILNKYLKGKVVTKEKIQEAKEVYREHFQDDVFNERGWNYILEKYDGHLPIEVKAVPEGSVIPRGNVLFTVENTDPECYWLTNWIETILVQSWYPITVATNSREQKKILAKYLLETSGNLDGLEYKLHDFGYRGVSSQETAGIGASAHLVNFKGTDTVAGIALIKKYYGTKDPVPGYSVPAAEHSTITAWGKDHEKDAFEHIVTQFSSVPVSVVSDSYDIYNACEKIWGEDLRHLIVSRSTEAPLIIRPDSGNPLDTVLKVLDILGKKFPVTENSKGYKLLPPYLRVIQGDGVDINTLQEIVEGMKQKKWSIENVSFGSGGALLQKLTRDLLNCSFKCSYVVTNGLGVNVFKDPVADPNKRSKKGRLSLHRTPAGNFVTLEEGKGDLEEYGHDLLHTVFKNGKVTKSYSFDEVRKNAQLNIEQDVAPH
Sequence of Nicotinamide phosphoribosyltransferase (Rattus norvegicus, UniProt Q80Z29) (Q80Z29 whole entry): as the sequence (Q99KQ4 whole entry) above, with T335S, N439T, I484M counted along it

Work on `O=C(NCc1ccc(S(=O)(=O)c2cc(F)cc(F)c2)cc1)c1ccc2nccn2c1` yielded an EC50 [1] of 1.3 nM, an IC50 [2] of 23 nM and an IC50 [3] of 16 nM. It also gave an IC50 [4] of 9 nM, an IC50 [5] of 7 nM and an IC50 [6] of 2 nM. It also gave a concentration at 1 h [7] of 1900 nM, a Drug uptake [8] of 31 nM and an IC50 [9] of 7 nM. For the same molecule, the IC50 [10] was 71 nM, the IC50 [11] was 7 nM and the Drug uptake (PC-3 [12]) was 30 nM. For the same molecule, the Drug uptake (PC-3 [13]) was 9 nM, the IC50 [14] was 41 nM and the Kp at 1 h [15] was 0.32. The IC50 [16] was 24 nM, the concentration at 6.5 h [17] was 1300 nM and the IC50 [18] was 4 nM. It also gave an IC50 [19] of 4 nM, an IC50 (PC-3 [20]) of 3 nM and a Drug uptake [21] of 8 nM. The Kp at 6.5 h [22] was 0.3, the pKa [23] was 5.3 and the IC50 [24] was 42 nM. It also gave an IC50 [25] of 12 nM and a logD [26] of 3.2.
In the case of `CN(C)c1ccc(S(=O)(=O)c2ccc(CNC(=O)c3cnc4[nH]ncc4c3)cc2)cn1`, the fraction unbound at 5 µM [27] is reported as 0.018, the solubility [28] is reported as < 1 µM and the Papp A→B at 10 µM [29] is reported as 1.5 ×10⁻⁶ cm/s. For the same molecule, the inhibition (A2780 [30]) was “inactive”, the IC50 [31] was 12 nM and the IC50 (A2780 [32]) was 3.2 nM.
For `O=C(NCc1ccc(S(=O)(=O)c2cccc(C(F)(F)F)c2)cc1)c1cnc2[nH]ncc2c1`, the EC50 [1] was 70 nM, the IC50 [2] was 35 nM and the IC50 [33] was 21 nM. It also gave an IC50 [3] of 775 nM, a clearance [34] of 3.3 mL/min/kg and an IC50 [4] of 863 nM. The fraction unbound at 5 µM [27] was 0.013, the IC50 [5] was 30 nM and the IC50 [6] was 9 nM. The Activity (Tumour) was “Active”, the Drug uptake [8] was 74 nM and the IC50 [9] was 41 nM. The IC50 [10] was > 1000 nM, the IC50 [11] was 22 nM and the concentration at 6.5 h [35] was 680 nM. For the same molecule, the Drug uptake (PC-3 [12]) was 54 nM, the Drug uptake (PC-3 [13]) was 10 nM and the IC50 [14] was > 1000 nM. It also gave a solubility [28] of 1.4 µM (≈ 0.645 µg/mL), a Kp at 1 h [36] of 0.071 and an IC50 [16] of 59 nM. The half-life [37] was 2.6 h, the IC50 [18] was 386 nM and the Activity (A2780 [38]) was “Active”. For the same molecule, the Papp A→B at 10 µM [29] was 11 ×10⁻⁶ cm/s, the Tmax [39] was 0.25 h and the IC50 [19] was 23 nM. The inhibition (A2780 [30]) was “inactive”, the IC50 (PC-3 [20]) was 9 nM and the Drug uptake [21] was 12 nM. It also gave a half-life [40] of 3.4 h, an IC50 (A2780 [32]) of 4.3 nM and a Cmax [41] of 53000 nM. The concentration at 1 h [42] was 940 nM, the pKa [23] was < 2 and the IC50 [24] was 73 nM. The Vd [43] was 0.45 L/kg, the IC50 [44] was 501 nM and the IC50 [25] was 98 nM. The Activity (Mus musculus) was “Toxic”, the Kp at 6.5 h [45] was 0.093 and the logD [26] was 3.4. The IC50 (HCT-116) was 8 nM.
With `O=C(NCc1ccc(S(=O)(=O)c2cccc(OC(F)(F)F)c2)cc1)c1cnc2[nH]ncc2c1` the fraction unbound at 5 µM [27] was 0.008, the solubility [28] was < 1 µM and the Papp A→B at 10 µM [29] was 4 ×10⁻⁶ cm/s. The inhibition (A2780 [30]) was “inactive”, the IC50 [31] was 7.7 nM and the IC50 (A2780 [32]) was 4.8 nM.
In the case of `O=C(NCc1ccc(S(=O)(=O)c2cncc(C(F)(F)F)c2)cc1)c1cnc2[nH]ncc2c1`, the fraction unbound at 5 µM [27] is reported as 0.05, the solubility [28] is reported as < 1 µM and the Papp A→B at 10 µM [29] is reported as 4.4 ×10⁻⁶ cm/s. For the same molecule, the inhibition (A2780 [30]) was “inactive”, the IC50 [31] was 10 nM and the IC50 (A2780 [32]) was 4.5 nM.
In the case of `O=C(NCc1ccc(S(=O)(=O)c2cncc(Cl)c2)cc1)c1cnc2[nH]ncc2c1`, the fraction unbound at 5 µM [27] is reported as 0.074, the solubility [28] is reported as < 1 µM and the Papp A→B at 10 µM [29] is reported as 2.5 ×10⁻⁶ cm/s. For the same molecule, the inhibition (A2780 [30]) was “inactive”, the IC50 [31] was 11 nM and the IC50 (A2780 [32]) was 2.4 nM.
